Assay results published in patent US7816353B2 (Exelixis, Inc., priority 2003, dated 2010).
Like-named read-outs stand apart in the source and are kept apart here.

Molecular target: T1, p70S6K (Homo sapiens, UniProt P23443, T412E)
T1 construct: human p70S6 kinase domain residues 1-421, containing a T412E mutation; made in house
Test: p70S6 Kinase Assay (Luciferase-Coupled Chemiluminescent Kinase assay, LCCA)
Format: biochemical
Conditions: 5 μM ATP
Description: Kinase activity and compound inhibition are investigated using one or more of the three assay formats described below. The ATP concentrations for each assay are selected to be close to the Michaelis-Menten constant (KM) for each individual kinase. Dose-response experiments are performed at 10 different inhibitor concentrations in a 384-well plate format. […] Y=Min+(Max−Min)/(1+(X/IC50)^H) Equation (2) p70S6 Kinase Assay
Biochemical activity of p70S6 kinase was assessed using a Luciferase-Coupled Chemiluminescent Kinase assay (LCCA) format. Kinase activity was measured as the percent ATP remaining following the kinase reaction. Remaining ATP was detected by luciferase-luciferin-coupled chemiluminescence. […] The mixture is incubated at ambient temperature for 2 hours after which 20 μL luciferase-luciferin mix is added and the chemiluminescent signal read using a Wallac Victor^2 reader.

[1] = human p70S6 kinase domain residues 1-421, T412E, read-out: p70S6K IC50

T1 sequence (P23443 1-421 T412E): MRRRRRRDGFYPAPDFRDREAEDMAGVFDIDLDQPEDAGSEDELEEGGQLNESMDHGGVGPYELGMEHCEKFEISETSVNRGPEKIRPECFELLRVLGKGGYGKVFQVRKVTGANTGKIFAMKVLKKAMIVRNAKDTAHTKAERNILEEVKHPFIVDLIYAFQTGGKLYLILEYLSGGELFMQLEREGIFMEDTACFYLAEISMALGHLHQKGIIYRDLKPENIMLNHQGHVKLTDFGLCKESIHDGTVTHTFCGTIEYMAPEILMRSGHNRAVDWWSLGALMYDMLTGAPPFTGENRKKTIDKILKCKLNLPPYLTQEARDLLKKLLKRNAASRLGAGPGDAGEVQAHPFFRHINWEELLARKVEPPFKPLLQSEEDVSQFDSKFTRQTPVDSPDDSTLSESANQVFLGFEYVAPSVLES

| Compound | IC50 [1] [nM] | IC50 (p70S6K IC50, human p70S6 kinase domain residues 1-421, T412E) [nM] |
| --- | --- | --- |
| CSc1nc(N)nc(SCc2nc3ccc(C(F)(F)F)cc3[nH]2)c1C#N [Example 63, 2-amino-4-(methylthio)-6-({[6-(trifluoromethyl)-1H-benzimidazol-2-yl]methyl}thio)pyrimidine-5-carbonitrile] | 500 to 2000 |  |
| CSc1cc(SCC(=O)Nc2cccc(C(F)(F)F)c2)nc(N)n1 [Example 48, 2-{[2-amino-6-(methylthio)pyrimidin-4-yl]thio}-N-[3-(trifluoromethyl)phenyl]acetamide] | 50 to 500 |  |
| COc1nc(N)nc(N[C@@H](CN2CCOCC2)C(=O)Nc2cccc(C(F)(F)F)c2)c1C#N [Example 192, N~2~-[2-amino-5-cyano-6-(methyloxy)pyrimidin-4-yl]-3-morpholin-4-yl-N-[3-(trifluoromethyl)phenyl]-L-alaninamide] | > 2000 |  |
| CSc1nc(N)nc(N(CCN(C)C)CC(=O)Nc2cccc(C(F)(F)F)c2)c1C#N [Example 87, N^2-[2-amino-5-cyano-6-(methylthio)pyrimidin-4-yl]-N^2-[2-(dimethylamino)ethyl]-N-[3-(trifluoromethyl)phenyl]glycinamide] | > 2000 |  |
| CSc1nc(N)nc(SCC(=O)Nc2cccc(C(F)(F)F)c2C)c1C#N [Example 53, 2-{[2-amino-5-cyano-6-(methylthio)pyrimidin-4-yl]thio}-N-[2-methyl-3-(trifluoromethyl)phenyl]acetamide] | 500 to 2000 |  |
| CSc1nc(N)nc(OC2(C(=O)Nc3cccc(C(F)(F)F)c3)CC2)c1C#N [Example 69, 1-{[2-amino-5-cyano-6-(methylthio)pyrimidin-4-yl]oxy}-N-[3-(trifluoromethyl)phenyl]cyclopropanecarboxamide] | 500 to 2000 |  |
| CSc1nc(N)nc(N(C)[C@@H](C)c2nc3ccc(C(F)(F)F)cc3[nH]2)c1C#N [Example 104, 2-amino-4-(methylthio)-6-(methyl{(1S)-1-[6-(trifluoromethyl)-1H-benzimidazol-2-yl]ethyl}amino)pyrimidine-5-carbonitrile] | > 2000 |  |
| COc1ccc(C(F)(F)F)cc1NC(=O)[C@H](C)Nc1nc(N)nc(SC)c1C#N [Example 79, N^2-[2-amino-5-cyano-6-(methylthio)pyrimidin-4-yl]-N-[2-(methyloxy)-5-(trifluoromethyl)phenyl]-L-alaninmide] | > 2000 |  |
| CSc1nc(N)nc(OCC(=O)Nc2cccc(C(F)(F)F)c2)c1CO [Example 56, 2-{[2-amino-5-(hydroxymethyl)-6-(methylthio)pyrimidin-4-yl]oxy}-N-[3-(trifluoromethyl)phenyl]acetamide] | 500 to 2000 |  |
| C[C@H](Nc1nc(N)nc(S(C)(=O)=O)c1C#N)C(=O)Nc1cccc(C(F)(F)F)c1 [Example 75, N^2-[2-amino-5-cyano-6-(methylsulfonyl)pyrimidin-4-yl]-N-[3-(trifluoromethyl)phenyl]-L-alaninamide] | > 2000 |  |
| CNc1nc(N)nc(SCC(=O)Nc2cccc(C(F)(F)F)c2)c1C#N [Example 61, 2-{[2-amino-5-cyano-6-(methylamino)pyrimidin-4-yl]thio}-N-[3-(trifluoromethyl)phenyl]acetamide] | 500 to 2000 |  |
| CSc1nc(N)nc(N[C@@H](C)C(=O)Nc2cc(C(F)(F)F)ccc2Cl)c1C#N [Example 80, N^2-[2-amino-5-cyano-6-(methylthio)pyrimidin-4-yl]-N-[2-5-(trifluoromethyl)phenyl]-L-alaninamide] | > 2000 |  |
| Cc1nc2oc(C(=O)Nc3cccc(C(F)(F)F)c3)c(N)c2c(C)c1[N+](=O)[O-] [Example 98, 3-amino-4,6-dimethyl-5-nitro-N-[3-(trifluoromethyl)phenyl]furo[2,3-b]pyridine-2-carboxamide] | > 2000 |  |
| COc1nc(N)nc(N(C)[C@@H](C)C(=O)Nc2cccc(OC(F)(F)F)c2)c1C#N [Example 188, N~2~-[2-amino-5-cyano-6-(methyloxy)pyrimidin-4-yl]-N~2~-methyl-N-{3-[(trifluoromethyl)oxy]phenyl}-L-alaninamide] | > 2000 |  |
| Nc1nc(NCC(=O)Nc2cccc(C(F)(F)F)c2)c2cn[nH]c2n1 [Example 57, N^2-(6-amino-1H-pyrazolo[3,4-d]pyrimidin-4-yl)-N-[3-(trifluoromethyl)phenyl]glycinamide] | 500 to 2000 |  |
| CSc1nc(N)nc(N[C@@H](C)C(=O)Nc2cc(N)cc(C(F)(F)F)c2)c1C#N [Example 94, N^2-[2-amino-5-cyano-6-(methylthio)pyrimidin-4-yl]-N-[3-amino-5-(trifluoromethyl)phenyl]-L-alaninamide] | > 2000 |  |
| COc1nc(N)nc(N[C@@H](C)C(=O)Nc2cccc(C(F)(F)F)c2)c1C#N [Example 78, N^2-[2-amino-5-cyano-6-(methyloxy)pyrimidin-4-yl]-N-[3-(trifluoromethyl)phenyl]-L-alaninamide] | > 2000 |  |
| CSc1nc(N)nc(O[C@@H](C)C(=O)Nc2cccc(C(F)(F)F)c2)c1C#N [Example 42, (2S)-2-{[2-amino-5-cyano-6-(methylthio)pyrimidin-4-yl]oxy}-N-[3-(trifluoromethyl)phenyl]propanamide] |  | 50 to 500 |

Second part, led by results:

| IC50 [1] [nM] | Compound | IC50 (p70S6K IC50, human p70S6 kinase domain residues 1-421, T412E) [nM] |
| --- | --- | --- |
| > 2000 | CSc1nc(N)nc(N[C@@H](CCCNC(C)=O)C(=O)Nc2cccc(C(F)(F)F)c2)c1C#N [Example 123, N^5-acetyl-N^2-[2-amino-5-cyano-6-(methylthio)pyrimidin-4-yl]-N-[3-(trifluoromethyl)phenyl]-L-ornithinamide] |  |
| > 2000 | CCOc1nc(N)nc(N[C@@H](CCCNC(=N)N)C(=O)Nc2cccc(C(F)(F)F)c2)c1C#N [Example 152, N~2~-[2-amino-5-cyano-6-(ethyloxy)pyrimidin-4-yl]-N-[3-(trifluoromethyl)phenyl]-L-argininamide] |  |
| > 2000 | CCOc1nc(N)nc(N[C@@H](CCC(N)=O)C(=O)Nc2cccc(C(F)(F)F)c2)c1C#N [Example 175, N~2~-[2-amino-5-cyano-6-(ethyloxy)pyrimidin-4-yl]-N~1~-[3-(trifluoromethyl)phenyl]-L-glutamamide] |  |
| > 2000 | CSc1nc(N)nc(N[C@@H](COCc2ccccc2)C(=O)Nc2cccc(C(F)(F)F)c2)c1C#N [Example 183, N~2~-[2-amino-5-cyano-6-(methylthio)pyrimidin-4-yl]-O-(phenylmethyl)-N-[3-(trifluoromethyl)phenyl]-L-serinamide] |  |
| 500 to 2000 | COC(=O)CC[C@H](Nc1nc(N)nc(SC)c1C#N)C(=O)Nc1cccc(C(F)(F)F)c1 [Example 146, methyl N~2~-[2-amino-5-cyano-6-(methylthio0pyrimidin-4-yl]-N-'-(trifluoromethyl)phenyl]-L-alpha-glutaminate] |  |
| > 2000 | CSc1nc(N)nc(N[C@@H](CCCCN(C)C)C(=O)Nc2cccc(C(F)(F)F)c2)c1C#N [Example 171, N~2~-[2-amino-5-cyano-6-(methylthio)pyrimidin-4-yl]-N~6~,N~6~-dimethyl-N-[3-(trifluoromethyl)phenyl]-L-lysinamide] |  |
| > 2000 | CCOc1nc(N)nc(N[C@@H](CCCNC(C)=O)C(=O)Nc2cccc(C(F)(F)F)c2)c1C#N [Example 186, N~5~-acetyl-N~2~-[2-amino-5-cyano-6-(ethyloxy)pyrimidin-4-yl]-N-[3-(trifluoromethyl)phenyl]-L-ornithinamide] |  |
| 500 to 2000 | CCOc1nc(N)nc(N[C@@H](CO)C(=O)Nc2cccc(C(F)(F)F)c2)c1C#N [Example 150, N~2~-[2-amino-5-cyano-6-(ethyloxy)pyrimidin-4-yl]-N-[3-(trifluoromethyl)phenyl]-L-serinamide] |  |
